# According to US20220259593A1, “CONTROL OF MAMMALIAN GENE DOSAGE USING CRISPR” (The Regents of the University of California, priority 2019, published 2022):
# What was measured:
# [1] = tested on: K562 CRISPRi cells; assay: Perturb-seq pooled growth measurement (sgRNA counts, growth phenotype γ, relative activity); type: cell-based, human; conditions: for gamma_day5 / gamma_day10: pooled growth phenotype γ of the Perturb-seq sgRNA; for gamma_day5: day 5, K562 CRISPRi cells; for gamma_day10: day 10, K562 CRISPRi cells; for relative_activity_day5: γ relative to perfectly matched sgRNA (_00) of the same gene, day 5
# Procedure, shortened: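 sgRNA abundance was sequenced from genomic DNA of the same transduced population sampled on days two, seven and twelve. Phenotype γ compares normalized day seven and twelve counts with day two. Day-seven values (five days of growth) define relative sgRNA activity.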
# [2] = tested on: K562 CRISPRi cells; assay: as above; type: cell-based, human; conditions: γ relative to perfectly matched sgRNA (_00) of the same gene, day 10
Substance,gamma_day5 [1],gamma_day10 [1],relative_activity_day5 [1],relative_activity_day10 [2]
"HSPA9_ −_137911079.23-P1P2_07 (guide GGAGCTGCGGGATGCGGTGG; listed as DNA, chemistry not fully specified)",−0.8109,−0.5036,0.8537,0.8547
"HSPA9_ −_137911079.23-P1P2_08 (guide GGAGCTGCTCGATGCGGTGG; listed as DNA, chemistry not fully specified)",−0.3582,−0.2762,0.3771,0.4688
"HSPE1_ + _198365089.23-P1P2_00 (guide GGAGACTCGCAGTCCGGCCC; listed as DNA, chemistry not fully specified)",−0.7018,−0.5672,1,1
"HSPE1_ + _198365089.23-P1P2_01 (guide GGAGACACGCAGTCCGGCCC; listed as DNA, chemistry not fully specified)",−0.616,−0.4834,0.8777,0.8523
"HSPE1_ + _198365089.23-P1P2_02 (guide GGAGACTGGCAGTCCGGCCC; listed as DNA, chemistry not fully specified)",−0.4365,−0.3565,0.622,0.6285
"HSPE1_ + _198365089.23-P1P2_03 (guide GGTGACTCGCAGTCCGGCCC; listed as DNA, chemistry not fully specified)",−0.6427,−0.465,0.9158,0.8198
"HSPE1_ + _198365089.23-P1P2_14 (guide GGAGACTCGCAGTCCTGCCC; listed as DNA, chemistry not fully specified)",−0.2088,−0.1965,0.2975,0.3465
"MTOR_ + _11322547.23-P1P2_00 (guide GGGCAGGGGGCCTGAAGCGG; listed as DNA, chemistry not fully specified)",−0.6872,−0.5618,1,1
"MTOR_ + _11322547.23-P1P2_05 (guide GGGCAGGGGGCTTGAAGCGG; listed as DNA, chemistry not fully specified)",−0.4313,−0.3448,0.6275,0.6137
"MTOR_ + _11322547.23-P1P2_06 (guide GGGCAGGGGGGCTGAAGCGG; listed as DNA, chemistry not fully specified)",−0.3933,−0.2989,0.5723,0.532
"MTOR_ + _11322547.23-P1P2_07 (guide GGGCAGGGGGTCTGAAGCGG; listed as DNA, chemistry not fully specified)",−0.5893,−0.4799,0.8576,0.8541
"MTOR_ + _11322547.23-P1P2_10 (guide GGGCAGGGGGCCTGAAGCAG; listed as DNA, chemistry not fully specified)",−0.3048,−0.2327,0.4435,0.4141
"POLR1D_ + _28196016.23-P1_00 (guide GGGAAGCAAGGACCGACCGA; listed as DNA, chemistry not fully specified)",−0.7594,−0.6213,1,1
"POLR1D_ + _28196016.23-P1_01 (guide GGGAAGCCAGGACCGACCGA; listed as DNA, chemistry not fully specified)",−0.6945,−0.5416,0.9145,0.8718
"POLR1D_ + _28196016.23-P1_03 (guide GGTAAGCAAGGACCGACCGA; listed as DNA, chemistry not fully specified)",−0.8471,−0.6833,1.116,1.1
"POLR1D_ + _28196016.23-P1_07 (guide GGGAAGCAAGGAGCGACCGA; listed as DNA, chemistry not fully specified)",−0.3019,−0.243,0.3976,0.3911
"POLR1D_ + _28196016.23-P1_08 (guide GGGAAGCAGGGACCGACCGA; listed as DNA, chemistry not fully specified)",−0.8088,−0.6317,1.065,1.017

Substance,gamma_day5 [1],gamma_day10 [1],relative_activity_day5 [1],relative_activity_day10 [2]
"POLR2H_ + _184081251.23-P1P2_00 (guide GGGGCCACGAGAGCAGCAGA; listed as DNA, chemistry not fully specified)",−1.149,−0.6391,1,1
"POLR2H_ + _184081251.23-P1P2_07 (guide GGGGCCACGAGTGCAGCAGA; listed as DNA, chemistry not fully specified)",−0.1894,−0.1426,0.1648,0.223
"POLR2H_ + _184081251.23-P1P2_08 (guide GGGGCCACGCGAGCAGCAGA; listed as DNA, chemistry not fully specified)",−0.5208,−0.334,0.4532,0.5225
"POLR2H_ + _184081251.23-P1P2_11 (guide GGGGCCACGAGAGCAGCGGA; listed as DNA, chemistry not fully specified)",−0.9966,−0.5467,0.8672,0.8554
"POLR2H_ + _184081251.23-P1P2_12 (guide GGGGCCACGAGAGCAGGAGA; listed as DNA, chemistry not fully specified)",−0.3516,−0.2298,0.306,0.3595
"RAN_ + _131356438.23-P1P2_00 (guide GGCGGTCGCTGCGCTTAGGG; listed as DNA, chemistry not fully specified)",−0.1974,−0.1615,1,1
"RAN_ + _131356438.23-P1P2_02 (guide GGCGGCCGCTGCGCTTAGGG; listed as DNA, chemistry not fully specified)",−0.2316,−0.2041,1.173,1.264
"RAN_ + _131356438.23-P1P2_03 (guide GGGGGTCGCTGCGCTTAGGG; listed as DNA, chemistry not fully specified)",−0.2162,−0.197,1.095,1.22
"RAN_ + _131356438.23-P1P2_04 (guide GGCGGTCGCGGCGCTTAGGG; listed as DNA, chemistry not fully specified)",−0.0859,−0.08721,0.4352,0.5401
"RAN_ + _131356438.23-P1P2_12 (guide GGCGGTCGCTGCGCTTAGGT; listed as DNA, chemistry not fully specified)",−0.04655,−0.03426,0.2358,0.2122
"RPL9_ + _39460483.23-P1P2_00 (guide GGATGTTTCTGTGCTCGTGG; listed as DNA, chemistry not fully specified)",−1.113,−0.6699,1,1
"RPL9_ + _39460483.23-P1P2_01 (guide GGATGATTCTGTGCTCGTGG; listed as DNA, chemistry not fully specified)",−0.8528,−0.4984,0.7661,0.7441
"RPL9_ + _39460483.23-P1P2_04 (guide GGATGTTTCAGTGCTCGTGG; listed as DNA, chemistry not fully specified)",−0.4171,−0.2942,0.3747,0.4392
"RPL9_ + _39460483.23-P1P2_05 (guide GGATGTTTCGGTGCTCGTGG; listed as DNA, chemistry not fully specified)",−0.6073,−0.3848,0.5456,0.5745
"RPL9_ + _39460483.23-P1P2_07 (guide GGATGTTTCTGCGCTCGTGG; listed as DNA, chemistry not fully specified)",−0.2924,−0.2073,0.2627,0.3095
"RPS14_ + _149829238.23-P1P2_00 (guide GAGGCCCGGGCGCGACAATC; listed as DNA, chemistry not fully specified)",−0.7908,−0.4995,1,1
